Source: patent US11542492B2 (Celgene CAR LLC, priority 2009, dated 2023)

Key:
Type in all cases: biochemical
p110α/p85α (PI3Kα) = biological target: T1, p110α/p85α (PI3Kα) (Homo sapiens, UniProt P42336); assay: HTRF assay, p110α/p85α; conditions: read-out: PI3Kα-HTRF-IC50 nM Inhibition Designation
T1 construct: purchased BPS Bioscience or Millipore 40620 (BPS Bioscience) or 14-602 (Millipore)
Procedure: HTRF Assay Protocol for Potency Assessment Against the Active Form of p110α/p85α:
The mechanics of the assay platform are best described by the vendor (Millipore, Billerica, Mass.) on their website at the following URL: http://www.millipore.com/coa/tech1/74jt4z.
Briefly, Stop solution (Stop A, #33-007 and Stop B, #33-009; 3:1 ratio) and Detection Mix (DMC, #33-015 with DMA, #33-011 and DMB, #33-013; 18:1:1 ratio) were prepared as recommended by the manufacturer ˜2 hrs prior to use. […] Lipid kinase reactions were started with the addition of 5 μL of ATP solution, mixed for 15 sec on a rotary plate shaker and incubated for 15-30 minutes at 25° C. Next, reactions were stopped with a 5 μL addition of Stop solution followed by a 5 μL volume of Detection Mix. […] At the conclusion of each assay, the HTRF ratio from fluorescence emission values for each well was calculated and % Inhibition determined from averaged controls wells. % Inhibition values for each compound re then plotted against inhibitor concentration to estimate IC50 from log [Inhibitor] vs Response, Variable Slope model in GraphPad Prism from GraphPad Software (San Diego, Calif.).

p120γ (PI3Kγ) = biological target: T2, p120γ (PI3Kγ) (Homo sapiens, UniProt P48736); assay: HTRF assay, p120γ; conditions: PI3Kγ; read-out: PI3Kγ HTRF IC50 Inhibition Designation
T2 construct: purchased BPS Bioscience 40625
Text: The protocol below describes an end-point, competition-binding HTRF assay used to measure inherent potency of test compounds against active p110α/p85α, p110β/p85α, p120γ enzymes. The mechanics of the assay platform are best described by the vendor (Millipore, Billerica, Mass.) on their website at the following URL: http://www.millipore.com/coa/tech1/74jt4z.
Briefly, Stop solution (Stop A, #33-007 and Stop B, #33-009; 3:1 ratio) and Detection Mix (DMC, #33-015 with DMA, #33-011 and DMB, #33-013; 18:1:1 ratio) were prepared as recommended by the manufacturer ˜2 hrs prior to use. Additionally, 1× reaction buffer (4× buffer stock #33-003), a 1.4× stock of enzyme from BPS Bioscience (San Diego, Ca) or Millipore (Billerica, Mass.) with di-C8-PIP2 lipid substrate (#33-005), and a 4×ATP solution (#A7699) Sigma/Aldrich (St. Louis, Mo.) were prepared in 1×reaction buffer. 15 μL of enzyme and lipid substrate mix were pre-incubated in a Corning (#3573) 384-well, black, non-treated microtiter plate (Corning, N.Y.) for 30 min at 25° C. with a 0.5 μL volume of 50% DMSO and serially diluted compounds prepared in 50%-75% DMSO. Lipid kinase reactions were started with the addition of 5 μL of ATP solution, mixed for 15 sec on a rotary plate shaker and incubated for 15-30 minutes at 25° C. Next, reactions were stopped with a 5 μL addition of Stop solution followed by a 5 μL volume of Detection Mix. Stopped reactions were equilibrated for 1 and 18 hrs at room temperature and then read in a Synergy4 plate reader from BioTek (Winooski, Vt.) at λex330-80/λem620-35 and λem665-7.5. At the conclusion of each assay, the HTRF ratio from fluorescence emission values for each well was calculated and % Inhibition determined from averaged controls wells. % Inhibition values for each compound re then plotted against inhibitor concentration to estimate IC50 from log [Inhibitor] vs Response, Variable Slope model in GraphPad Prism from GraphPad Software (San Diego, Calif.).
Reagents Used in Optimized Protocol: • [p120γ]=1-4 nM, [ATP]=50 μM, [di-C8-PIP2]=10 μM • (40625; BPS Bioscience)

[1] = biological target: T3, HCV NS3/4A 1b protease enzyme (wild type) (Hepatitis C virus genotype 1b, UniProt P26663); assay: HCV protease FRET assay (IC50_APP), wild type NS3/4A 1b
T3 construct: 10× stocks of NS3/4A protease enzyme from Bioenza (Mountain View, Calif.); purchased Bioenza
Procedure: HCV Protease FRET Assay for WT and Mutated NS3/4A 1b Enzymes (IC50_APP).
The following protocol was used to generate “apparent” IC50 (IC50_APP) values as depicted in Table 6, below. Without wishing to be bound by any particular theory, it is believed that IC50_APP, contrasted with IC50 values, may provide a more useful indication of time-dependent inhibition, and are thus more representative of binding affinity. […] 5 μL of each enzyme were added to Corning (#3575) 384-well, black, microtiter plates (Corning, N.Y.) after spotting a 0.5 μL volume of 50% DMSO and serially diluted compounds prepared in 50% DMSO. Protease reactions were immediately started after enzyme addition with the addition of 45 μL of the FRET substrate and monitored for 60-90 minutes at λex485/λem520 in a Synergy plate reader from BioTek (Winooski, Vt.). At the conclusion of each assay, progress curves from each well were examined for linear reaction kinetics and fit statistics (R^2, 95% confidence intervals, absolute sum of squares). Initial velocity (0 minutes to 15+ minutes) from each reaction was determined from the slope of a plot of relative fluorescence units vs time (minutes) and then plotted against inhibitor concentration as a percent of the no inhibitor and no enzyme controls to estimate apparent IC50 from log [Inhibitor] vs Response. (Variable Slope model in GraphPad Prism from GraphPad Software (San Diego, Calif.).)

T1 sequence (P42336 whole entry): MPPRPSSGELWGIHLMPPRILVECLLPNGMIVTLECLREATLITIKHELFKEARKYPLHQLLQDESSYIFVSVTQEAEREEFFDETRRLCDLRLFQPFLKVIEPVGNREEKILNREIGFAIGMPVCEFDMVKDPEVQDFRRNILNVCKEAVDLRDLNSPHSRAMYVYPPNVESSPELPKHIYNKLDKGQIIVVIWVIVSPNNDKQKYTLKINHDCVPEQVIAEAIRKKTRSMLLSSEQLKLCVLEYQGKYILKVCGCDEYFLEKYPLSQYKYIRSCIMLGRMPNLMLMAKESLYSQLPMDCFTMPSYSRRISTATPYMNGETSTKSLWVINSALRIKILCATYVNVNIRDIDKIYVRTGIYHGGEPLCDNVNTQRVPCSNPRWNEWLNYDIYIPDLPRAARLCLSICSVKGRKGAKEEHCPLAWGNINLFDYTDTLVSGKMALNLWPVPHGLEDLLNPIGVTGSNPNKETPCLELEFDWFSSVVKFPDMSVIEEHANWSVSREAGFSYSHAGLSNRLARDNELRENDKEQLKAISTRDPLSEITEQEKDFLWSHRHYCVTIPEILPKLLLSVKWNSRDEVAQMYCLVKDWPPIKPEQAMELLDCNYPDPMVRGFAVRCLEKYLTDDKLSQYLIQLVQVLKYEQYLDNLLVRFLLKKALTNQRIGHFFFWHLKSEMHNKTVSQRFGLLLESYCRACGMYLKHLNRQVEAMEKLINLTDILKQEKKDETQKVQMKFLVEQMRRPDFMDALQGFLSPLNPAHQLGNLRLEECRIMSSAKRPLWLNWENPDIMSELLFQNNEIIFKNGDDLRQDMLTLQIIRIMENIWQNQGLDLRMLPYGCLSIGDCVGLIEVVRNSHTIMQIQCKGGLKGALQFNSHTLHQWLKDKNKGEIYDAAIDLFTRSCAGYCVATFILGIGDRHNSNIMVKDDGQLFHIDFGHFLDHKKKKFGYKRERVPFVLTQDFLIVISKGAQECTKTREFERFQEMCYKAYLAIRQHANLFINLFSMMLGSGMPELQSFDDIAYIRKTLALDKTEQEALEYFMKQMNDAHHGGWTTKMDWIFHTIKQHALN
T1 sequence (P27986 whole entry partner): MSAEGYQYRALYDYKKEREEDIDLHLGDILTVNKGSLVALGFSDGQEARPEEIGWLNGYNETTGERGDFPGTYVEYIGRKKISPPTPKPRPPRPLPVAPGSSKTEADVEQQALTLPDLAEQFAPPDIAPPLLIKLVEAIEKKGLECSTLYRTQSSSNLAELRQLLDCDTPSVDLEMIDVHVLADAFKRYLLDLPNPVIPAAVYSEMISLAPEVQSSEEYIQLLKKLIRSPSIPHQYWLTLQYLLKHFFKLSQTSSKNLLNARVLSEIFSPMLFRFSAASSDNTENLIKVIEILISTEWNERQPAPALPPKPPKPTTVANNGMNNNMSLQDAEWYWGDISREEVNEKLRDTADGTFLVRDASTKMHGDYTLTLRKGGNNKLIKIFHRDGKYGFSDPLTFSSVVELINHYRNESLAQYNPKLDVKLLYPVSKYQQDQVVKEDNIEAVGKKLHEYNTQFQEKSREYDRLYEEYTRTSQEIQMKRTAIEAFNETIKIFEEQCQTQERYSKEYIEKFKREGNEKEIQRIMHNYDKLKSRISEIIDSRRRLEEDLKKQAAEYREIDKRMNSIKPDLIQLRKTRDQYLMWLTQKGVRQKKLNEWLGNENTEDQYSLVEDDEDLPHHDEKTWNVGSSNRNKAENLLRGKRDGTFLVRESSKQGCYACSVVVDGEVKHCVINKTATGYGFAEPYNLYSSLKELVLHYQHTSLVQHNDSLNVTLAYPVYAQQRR
T3 sequence (P26663 1658-1711): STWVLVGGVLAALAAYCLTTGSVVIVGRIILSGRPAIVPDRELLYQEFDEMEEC
T3 sequence (P26663 1027-1657): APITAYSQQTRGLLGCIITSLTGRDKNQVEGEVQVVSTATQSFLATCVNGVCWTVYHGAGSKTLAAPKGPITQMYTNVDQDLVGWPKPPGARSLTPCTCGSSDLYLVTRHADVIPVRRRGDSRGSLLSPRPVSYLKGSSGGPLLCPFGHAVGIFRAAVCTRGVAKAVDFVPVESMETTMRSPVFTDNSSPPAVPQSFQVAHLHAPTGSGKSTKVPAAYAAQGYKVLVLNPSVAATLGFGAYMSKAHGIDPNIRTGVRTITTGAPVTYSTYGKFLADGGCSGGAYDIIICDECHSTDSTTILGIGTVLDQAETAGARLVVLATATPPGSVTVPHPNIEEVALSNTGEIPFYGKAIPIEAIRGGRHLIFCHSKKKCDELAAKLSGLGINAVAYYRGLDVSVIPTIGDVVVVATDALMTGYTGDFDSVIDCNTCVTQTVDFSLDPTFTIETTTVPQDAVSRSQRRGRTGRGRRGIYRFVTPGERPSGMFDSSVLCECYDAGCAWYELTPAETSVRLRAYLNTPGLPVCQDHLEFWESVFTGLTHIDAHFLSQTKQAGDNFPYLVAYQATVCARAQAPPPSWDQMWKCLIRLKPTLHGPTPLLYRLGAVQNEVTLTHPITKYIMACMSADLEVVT
T2 sequence (P48736 whole entry): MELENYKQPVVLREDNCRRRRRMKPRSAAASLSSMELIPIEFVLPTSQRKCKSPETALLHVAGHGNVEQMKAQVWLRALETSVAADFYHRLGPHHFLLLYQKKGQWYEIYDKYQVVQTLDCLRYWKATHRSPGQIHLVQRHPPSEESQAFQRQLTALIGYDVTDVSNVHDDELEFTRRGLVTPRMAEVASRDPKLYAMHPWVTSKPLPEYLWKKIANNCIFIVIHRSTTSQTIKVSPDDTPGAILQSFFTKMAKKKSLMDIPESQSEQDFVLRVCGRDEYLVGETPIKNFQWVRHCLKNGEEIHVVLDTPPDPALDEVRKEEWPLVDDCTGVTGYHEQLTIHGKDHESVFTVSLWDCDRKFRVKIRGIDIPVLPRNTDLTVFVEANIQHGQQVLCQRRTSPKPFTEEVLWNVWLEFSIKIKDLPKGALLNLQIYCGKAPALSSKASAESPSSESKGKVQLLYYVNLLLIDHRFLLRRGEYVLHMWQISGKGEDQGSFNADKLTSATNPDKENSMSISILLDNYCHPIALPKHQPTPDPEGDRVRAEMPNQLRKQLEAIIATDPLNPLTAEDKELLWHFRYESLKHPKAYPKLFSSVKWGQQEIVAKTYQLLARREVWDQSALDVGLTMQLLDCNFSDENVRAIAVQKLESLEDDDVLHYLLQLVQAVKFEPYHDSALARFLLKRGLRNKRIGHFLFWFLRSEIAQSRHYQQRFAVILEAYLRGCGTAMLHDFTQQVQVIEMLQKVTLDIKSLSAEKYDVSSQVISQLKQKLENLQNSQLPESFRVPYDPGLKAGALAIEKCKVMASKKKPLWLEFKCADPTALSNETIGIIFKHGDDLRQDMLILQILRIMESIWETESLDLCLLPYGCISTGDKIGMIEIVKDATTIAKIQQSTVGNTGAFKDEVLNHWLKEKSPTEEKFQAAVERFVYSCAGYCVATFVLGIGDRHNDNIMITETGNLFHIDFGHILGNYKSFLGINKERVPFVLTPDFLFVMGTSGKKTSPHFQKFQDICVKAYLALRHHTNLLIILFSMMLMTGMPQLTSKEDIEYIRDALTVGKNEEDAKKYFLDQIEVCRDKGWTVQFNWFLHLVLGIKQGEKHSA

IC50 (p110α/p85α (PI3Kα)) [nM] | IC50 (p120γ (PI3Kγ)) [nM] | Compound | IC50 [1] [nM]
100 to 1000 |  | C=CC(=O)n1cc(-c2ccc3c(c2)N(c2nc4c(s2)C(=O)NC(C)(C)C4)CCO3)cn1 [XXIII-5, 2-(6-(1-acryloyl-1H-pyrazol-4-yl)-2H-benzo[b][1,4]oxazin-4(3H)-yl)-6,6-dimethyl-6,7-dihydrothiazolo[5,4-c]pyridin-4(5H)-one] | 
100 to 1000 | 100 to 1000 | CC1(C)Cc2nc(N3CCOc4ccc(-c5ccc6occc(=O)c6c5)cc43)sc2C(=O)N1 [XXIII-6] | 
100 to 1000 | 100 to 1000 | CC1(C)Cc2nc(N3CCOc4ccc(C(=O)N5C[C@@H]6C[C@H]5C(=O)O6)cc43)sc2C(=O)N1 [XXIII-4, (1S,4S)-5-(4-(6,6-dimethyl-4-oxo-4,5,6,7-tetrahydrothiazolo[5,4-c]pyridin-2-yl)-3,4-dihydro-2H-benzo[b][1,4]oxazine-6-carbonyl)-2-oxa-5-azabicyclo[2.2.1]heptan-3-one] | 
10 to 100 |  | CC(=O)CC(=O)N1CCN(Cc2cc3nc(-c4cccc5[nH]ncc45)nc(N4CCOCC4)c3s2)CC1 [XXII-14] | 
100 to 1000 | 100 to 1000 | O=C1CC[C@@H](C(=O)N2CCN(c3ccnc4ccc(/C=C5\SC(Nc6c(Cl)cccc6Cl)=NC5=O)cc34)CC2)O1 [XXIV-2] | 
100 to 1000 | 100 to 1000 | CC1(C)Cc2nc(N3CCOc4ccc(C(=O)N5C[C@H]6C[C@@H]5C(=O)O6)cc43)sc2C(=O)N1 [XXIII-3] | 
10 to 100 | 100 to 1000 | O=C1CC[C@H](C(=O)N2CCN(c3ccnc4ccc(/C=C5\SC(Nc6c(Cl)cccc6Cl)=NC5=O)cc34)CC2)O1 [XXIV-1] | 
 |  | C=C[C@@H]1C[C@]1(NC(=O)[C@@H]1CC(OC(=O)N2Cc3cccc(F)c3C2)CN1C(=O)[C@H](CN(C)C(=O)[C@@H]1CCC(=O)O1)NC(=O)OC(C)(C)C)C(=O)NS(=O)(=O)C1CC1 (stereo partly drawn) [XVI-19, (5S)-1-((S)-2-(tert-butoxycarbonylamino)-3-((S)-N-methyl-5-oxotetrahydrofuran-2-carboxamido)propanoyl)-5-((1R,2S)-1-(cyclopropylsulfonylcarbamoyl)-2-vinylcyclopropylcarbamoyl)pyrrolidin-3-yl 4-fluoroisoindoline-2-carboxylate] | 1 to 10
100 to 1000 | 1000 to 10000 | O=C1O[C@H]2C[C@@H]1N(Cc1cc(O)cc(-c3nc(N4CCOCC4)c4sccc4n3)c1)C2 [XXII-20] | 
1000 to 10000 |  | C=CC(=O)N1CCN(Cc2cc3nc(-c4ccccc4)nc(N4CCOCC4)c3s2)CC1 [XXII-19] | 
1000 to 10000 | 1000 to 10000 | CC1(C)Cc2nc(N3CCOc4ccc(-c5ccc(C(=O)N6C[C@H]7C[C@@H]6C(=O)O7)cc5)cc43)sc2C(=O)N1 [XXIII-7] | 
 |  | C=C[C@@H]1C[C@]1(NC(=O)[C@@H]1CC(OC(=O)N2Cc3cccc(F)c3C2)CN1C(=O)[C@@H]1CCC(=O)O1)C(=O)NS(=O)(=O)C1CC1 (stereo partly drawn) [XVI-23, (5S)-5-((1R,2S)-1-(cyclopropylsulfonylcarbamoyl)-2-vinylcyclopropylcarbamoyl)-1-((S)-5-oxotetrahydrofuran-2-carbonyl)pyrrolidin-3-yl 4-fluoroisoindoline-2-carboxylate] | 100 to 1000
 |  | C=C[C@@H]1C[C@]1(NC(=O)[C@@H]1CC(OC(=O)N2Cc3cccc(F)c3C2)CN1C(=O)[C@H]1CCC(=O)O1)C(=O)NS(=O)(=O)C1CC1 (stereo partly drawn) [XVI-22, (5S)-5-((1R,2S)-1-(cyclopropylsulfonylcarbamoyl)-2-vinylcyclopropylcarbamoyl)-1-((R)-5-oxotetrahydrofuran-2-carbonyl)pyrrolidin-3-yl 4-fluoroisoindoline-2-carboxylate] | > 1000
10 to 100 |  | O=C(N1CCN(Cc2cc3nc(-c4cccc5[nH]ncc45)nc(N4CCOCC4)c3s2)CC1)n1ccnc1 [XXII-16, (4-((2-(1H-indazol-4-yl)-4-morpholinothieno[3,2-d]pyrimidin-6-yl)methyl)piperazin-1-yl)(1H-imidazol-1-yl)methanone] | 
 |  | C=C[C@@H]1C[C@]1(NC(=O)[C@@H]1CC(OC(=O)N2Cc3cccc(F)c3C2)CN1C(=O)[C@H](CNC(=O)[C@@H]1CCC(=O)O1)NC(=O)OC(C)(C)C)C(=O)NS(=O)(=O)C1CC1 (stereo partly drawn) [XVI-21, (5S)-1-((S)-2-(tert-butoxycarbonylamino)-3-((S)-5-oxotetrahydrofuran-2-carboxamido)propanoyl)-5-((1R,2S)-1-(cyclopropylsulfonylcarbamoyl)-2-vinylcyclopropylcarbamoyl)pyrrolidin-3-yl 4-fluoroisoindoline-2-carboxylate] | 1 to 10
10 to 100 | 100 to 1000 | O=C1CC[C@@H](C(=O)N2CC=C(c3cc4nc(-c5cccc(O)c5)nc(N5CCOCC5)c4s3)CC2)O1 [XXII-1] | 
100 to 1000 | 100 to 1000 | C=CS(=O)(=O)N1CCN(Cc2cc3nc(-c4cccc5[nH]ncc45)nc(N4CCOCC4)c3s2)CC1 [XXII-8, 4-(2-(1H-indazol-4-yl)-6-((4-(vinylsulfonyl)piperazin-1-yl)methyl)thieno[3,2-d]pyrimidin-4-yl)morpholine] | 
100 to 1000 | 100 to 1000 | CC1(C)Cc2nc(N3CCOc4ccc(NC(=O)[C@H]5CCC(=O)O5)cc43)sc2C(=O)N1 [XXIII-2] | 
100 to 1000 | 100 to 1000 | C=CS(=O)(=O)Oc1cccc(-c2nc(N3CCOCC3)c3sc(CN(C)S(=O)(=O)C=C)cc3n2)c1 [XXII-9] | 
1000 to 10000 | 1000 to 10000 | C=CC(=O)Nc1cccc(-c2nc(N3CCOCC3)c3sccc3n2)c1 [XXII-21] | 
 |  | C=C[C@@H]1C[C@]1(NC(=O)[C@@H]1CC(OC(=O)N2Cc3cccc(F)c3C2)CN1C(=O)[C@H](CN(C)C(=O)[C@H]1CCC(=O)O1)NC(=O)OC(C)(C)C)C(=O)NS(=O)(=O)C1CC1 (stereo partly drawn) [XVI-18, (5S)-1-((S)-2-(tert-butoxycarbonylamino)-3-((R)-N-methyl-5-oxotetrahydrofuran-2-carboxamido)propanoyl)-5-((1R,2S)-1-(cyclopropylsulfonylcarbamoyl)-2-vinylcyclopropylcarbamoyl)pyrrolidin-3-yl 4-fluoroisoindoline-2-carboxylate] | 1 to 10
1000 to 10000 |  | O=C(N1CCN(Cc2cc3nc(-c4ccccc4)nc(N4CCOCC4)c3s2)CC1)n1ccnc1 [XXII-18] | 
10 to 100 | 100 to 1000 | CC(C)Oc1c(N2CCN(Cc3cc4nc(-c5cccc6[nH]ncc56)nc(N5CCOCC5)c4s3)CC2)c(=O)c1=O [XXII-15] | 
100 to 1000 | 100 to 1000 | CC1(C)Cc2nc(N3CCOc4ccc(NC(=O)[C@@H]5CCC(=O)O5)cc43)sc2C(=O)N1 [XXIII-1] | 
100 to 1000 | 100 to 1000 | C[C@H]1OC(=O)[C@H]1NC(=O)N1CCN(Cc2cc3nc(-c4cccc5[nH]ncc45)nc(N4CCOCC4)c3s2)CC1 [XXII-13] | 
